Measurements taken from PubChem BioAssay (NCI).
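How tested: cells in 96-well plates exposed to compound for 48 hours at five concentrations. TGI denotes the concentration required for complete inhibition of growth.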

Experiments:
Experiment in all cases: DTP human tumour cell line panel, 48 h
[1] = test system: IGROV1 ovarian
[2] = test system: NCI-H460 lung
[3] = test system: SNB-19 CNS
[4] = test system: ACHN renal
[5] = test system: SK-MEL-28 melanoma
[6] = test system: MDA-N
[7] = test system: SN12C renal
[8] = test system: MDA-MB-435
[9] = test system: UO-31 renal
[10] = test system: RXF 393 renal
[11] = test system: BT-549 breast

SMILES	TGI [1] [µM]	TGI [2] [µM]	TGI [3] [µM]	TGI [4] [µM]	TGI [5] [µM]	TGI [6] [µM]	TGI [7] [µM]	TGI [8] [µM]	TGI [9] [µM]	TGI [10] [µM]	TGI [11] [µM]
CC1(C)OP(=O)(O)C=C1Sc1ccc([N+](=O)[O-])cc1[N+](=O)[O-]	> 100	> 100	> 100	> 100	> 100	> 100	> 100	> 100			
CCOC(=O)CCC1(CCC(=O)OCC)CCCCCCCCC(CCC(=O)OCC)(CCC(=O)OCC)C(=O)C1=O	> 100	> 100	> 100	> 100	> 100	> 100	> 100	> 100			
C=C1CCCCCCCCC/C=C/1SCCCSC	> 100	> 100	> 100	> 100	> 100	> 100	> 100	> 100	> 100	> 100	
CCOC(=O)C(Cc1ccc(O)cc1)Nc1nc(=O)c2c(=O)oc(Cl)cc2o1 (stereo not drawn)	19.4	> 57.2	27.3	24.7	21		36.8	20.4	23.8	16	14.1
COc1ccc(CNc2nc(NC3CCCCC3)nc(NC3CCCCC3)n2)cc1	61.6	15.6	> 100	> 100	> 100		> 100	> 100	67.2	7.94	> 100
COC(=O)N[C@H](C(=O)NC(OCc1ccccc1)C1COC(C)(C)O1)C(C)O[Si](C)(C)C(C)(C)C (stereo partly drawn)	> 100	> 100	> 100	> 100	> 100	> 100			> 100	> 100	
CCCCCCc1cc2cc(C(=O)Nc3ccc(F)cc3)c(=N)oc2cc1O	4.47	> 100	25.3	> 100	43.5	28.1		10.1	18.4		7.32
N#Cc1cc2c(cc1Cl)Sc1nnc(Nc3ccccc3)n1S2(=O)=O	5.76	9.22	6.66	3.32	5.4		3.24	4.8	3.89	4.48	8.12
